Experimental findings from patent US20250341026A1, “METHODS AND MEANS FOR PREPARING A LIBRARY FOR SEQUENCING” (Illumina, Inc., priority 2018, published 2025) are described below.

The test system of assay [1] is mtDNA. Nature of the assay: DAPI staining of samples. In kind it is binding. The text has this:
In addition to performing transposition and ATAC-seq, the samples were also stained. […] DAPI stained DNA, but not at certain locations.

The test system of assay [2] is mtDNA. The assay can be described thus: ATAC-seq reads mapped to mtDNA after contacting the sample with dye. In kind it is biochemical. The following applies: for Effect on mitochondrial DNA reads: ATAC-seq, increasing dye concentrations (FIGS. 2A-2C); for % Mapped to mtDNA: transposition and ATAC-seq. As to the method:
(§1) A sample was obtained having both nuclear DNA and mtDNA. The sample was separated into various aliquots, and each aliquot was contacted with Hoechst 33258 dye in various concentrations, including 8 μM, 80 μM, and 800 μM. Each aliquot was then subjected to transposition and ATAC-seq, and the DNA reads were analyzed.
(§2) As shown in FIGS. 2A-2C, Hoechst dye selectively stained mtDNA, preventing transposition into mtDNA, but allowing transposition of nuclear DNA. […] The methods and compositions may be used for bulk ATAC-seq or single cell ATAC-seq to inhibit, reduce, or eliminate undesired mtDNA sequencing reads.

Assay [3] concerns gDNA (nuclear). The assay can be described thus: ATAC-seq reads mapped to nuclear gDNA after contacting the sample with dye. The following applies: transposition and ATAC-seq. The assay is classed as biochemical. As for the experimental part: as §1, §2
In assay [4] the test system is nucleosome positioning. The assay can be described thus: ATAC-seq profiles (nucleosome positioning) with dyes compared to no dye control. To be noted: FIG. 4; compared to the no dye control. In kind it is biochemical. As to the method:
A sample was obtained having both nuclear DNA and mtDNA. The sample was separated into various aliquots, and each aliquot was contacted with a different dye in various concentrations. Five different dyes were used, including Hoechst (at concentrations of 50 μM, 25 μM, 12 μM, 6 μM, 3 μM, and 0.6 μM), SYBR Gold (at concentrations of 500 μM, 50 μM, 5 μM, 0.5 μM, and 0.1 μM), Sytox Orange (at concentrations of 500 μM, 50 μM, 5 μM, 0.5 μM, and 0.1 μM), PicoGreen (at concentrations of 100 μM, 10 μM, 1 μM, 0.1 μM, and 0.02 μM), and Qubit (at concentrations of 100 μM, 10 μM, 1 μM, 0.1 μM, and 0.02 μM), as shown in FIGS. 3A-3C. Another aliquot was prepared that was not exposed to any dye. Each aliquot was then subjected Nextera transposition and products were visualized on a gel. FIG. 3A depicts the gel for Hoechst and SYBR Gold. FIG. 3B depicts the gel for Sytox Orange and PicoGreen, and FIG. 3C depicts the gel for Qubit and no dye. High molecular weight DNA products are indicative of inefficient transposition.
Hoechst allows relatively unbiased ATAC-seq profiling while not changing nucleosome positioning.

Where [5] appears, read: Concentration of Hoechst 800 μM.

On to `N=C(N)c1ccc(-c2cc3ccc(C(=N)N)cc3[nH]2)cc1` [DAPI, 4′, 6-diamidino-2-phenylindole], for which the “Staining of mtDNA versus actively transcribed regions of nuclear DNA” value in assay [1] is on record as “staining of mtDNA took place but not of actively transcribed (ATAC) regions of nuclear DNA”.

For `CN1CCN(c2ccc3[nH]c(-c4ccc5[nH]c(-c6ccc(O)cc6)nc5c4)nc3c2)CC1` [Hoechst, Hoechst 33258], the figures for the “Effect on mitochondrial DNA reads” value in assay [2] and in assay [2] (listed as Hoechst dye) were “reduces mitochondrial DNA reads” and “decreasing mtDNA reads”, respectively. Moreover, the “% Mapped to mtDNA” value was 32% in assay [2] (Concentration of Hoechst 8 μM), 11% in assay [2] (Concentration of Hoechst 80 μM) and 0% in assay [2] (setting [5]). Besides, the “% Mapped to gDNA (nuclear)” value amounted to 68% in assay [3] (Concentration of Hoechst 8 μM), 89% in assay [3] (Concentration of Hoechst 80 μM) and 100% in assay [3] (setting [5]). Also, the “Effect on ATAC-seq profiles (nucleosome positioning)” value in assay [4] is recorded as “does not alter the ATAC-seq profiles”.
